Measurements taken from the supplement of paper PMC9386025.

Columns and labels:
Assay in all cases: drug sensitivity score (DSS) (DSS (dimensionless)); higher = more sensitive (stronger drug response)
OVSAHO = tested on: OVSAHO
Summary of the method: (§1)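 Cells, either patient-derived cultures or ovarian cancer cell lines given 100 ng/ml doxycycline for no less than three days to induce shRNA, went into 384-well plates at 1 000 – 1 500 per well over drugs pre-plated in five concentrations across a 10,000-fold range. The plates were held for three days at 37 °C with 5.0 % CO2. Cell viability was then taken from CellTiter-Glo luminescence on a PHERAstar FS. For each drug, a drug sensitivity score from its dose-response curve was obtained by a method described earlier.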

Kuramochi = tested on: Kuramochi
Summary of the method: as §1

FIMM-PDC5 = patient-derived ovarian cancer cells; conditions: genetic perturbation: none (patient-derived cell culture)
Summary of the method: as §1

FIMM-PDC4 = patient-derived ovarian cancer cells; conditions: genetic perturbation: none (patient-derived cell culture)
Summary of the method: as §1

FIMM-PDC1 = patient-derived ovarian cancer cells; conditions: genetic perturbation: none (patient-derived cell culture)
Summary of the method: as §1

FIMM-PDC7 = patient-derived ovarian cancer cells; conditions: genetic perturbation: none (patient-derived cell culture)
Summary of the method: as §1

JHOS2 = tested on: JHOS2
Summary of the method: as §1

FIMM-PDC6 = patient-derived ovarian cancer cells; conditions: genetic perturbation: none (patient-derived cell culture)
Summary of the method: as §1

FIMM-PDC3 = patient-derived ovarian cancer cells; conditions: genetic perturbation: none (patient-derived cell culture)
Summary of the method: as §1

[1] = genetic perturbation: DOX-induced PTK7 shRNA knockdown
[2] = genetic perturbation: DOX-induced control shRNA

Compound	drug sensitivity score (OVSAHO; [1])	drug sensitivity score (OVSAHO; [2])	drug sensitivity score (Kuramochi; [1])	drug sensitivity score (Kuramochi; [2])	drug sensitivity score (FIMM-PDC5)	drug sensitivity score (FIMM-PDC4)	drug sensitivity score (FIMM-PDC1)	drug sensitivity score (FIMM-PDC7)	drug sensitivity score (JHOS2; [1])	drug sensitivity score (JHOS2; [2])	drug sensitivity score (FIMM-PDC6)	drug sensitivity score (FIMM-PDC3)
C[C@H]1O[C@@H](O[C@H]2[C@@H](O)C[C@H](O[C@H]3[C@@H](O)C[C@H](O[C@H]4CC[C@@]5(C)[C@H](CC[C@@H]6[C@@H]5C[C@@H](O)[C@]5(C)[C@@H](C7=CC(=O)OC7)CC[C@]65O)C4)O[C@@H]3C)O[C@@H]2C)C[C@H](O)[C@@H]1O [Digoxin]	8.6	8	8.45	7.4	11.9	14.6	9.4	12.5	17.2	13	16.6	12
CCc1cnn2c(NCc3ccc[n+]([O-])c3)cc(N3CCCC[C@H]3CCO)nc12 [Dinaciclib]	24.8	16.4	18.5	15.9	24.6	20.3	20.8	22.4	17.4	19.6	22.5	17.5
CC(=O)O[C@@]12CO[C@@H]1C[C@H](O)[C@@]1(C)C(=O)[C@H](O)C3=C(C)[C@@H](OC(=O)[C@H](O)[C@@H](NC(=O)OC(C)(C)C)c4ccccc4)C[C@@](O)([C@@H](OC(=O)c4ccccc4)[C@H]21)C3(C)C [Docetaxel]	7.6	13.5	18	4.4	21.5	18.8	15.6	7.2	20.3	12.7	7.4	21.6
COc1cccc2c1C(=O)c1c(O)c3c(c(O)c1C2=O)C[C@@](O)(C(=O)CO)C[C@@H]3O[C@H]1C[C@H](N)[C@H](O)[C@H](C)O1 [Doxorubicin]	5.8	4.7	5.1	5	5.4	6.8	4.7	6.6	7	7.6	3.7	6.4
Cc1ccc(NS(=O)(=O)c2cccc(C#N)c2)c2[nH]cc(C#N)c12 [E7820]	3	1.1	2.4	1.5	6.4	3	2.9	12.2	9.6	9.5	5.9	18.3
Cc1cc(Nc2cc(N3CCN(C)CC3)nc(/C=C/c3ccccc3)n2)n[nH]1 [ENMD-2076]	11.5	7.9	9.65	8.1	12.4	10.5	6	4.2	8.3	9.4	3.4	8.6
NC(=O)/C(=C/n1cnc(-c2cc(C(F)(F)F)cc(C(F)(F)F)c2)n1)c1cncnc1 [Eltanexor]	17.8	9.5	12.4	17	22.4	19.9	14.7	17.8	18.9	17	25.8	23.7
Nc1ccccc1NC(=O)c1ccc(CNC(=O)OCc2cccnc2)cc1 [Entinostat]	8.5	4.6	8.05	2.3	8.2	4.5	7.1	6.5	4.5	2.5	6.6	9
COc1cccc2c1C(=O)c1c(O)c3c(c(O)c1C2=O)C[C@@](O)(C(=O)CO)C[C@@H]3O[C@H]1C[C@H](N)[C@@H](O)[C@H](C)O1 [Epirubicin]	5.8	5.2	4.45	3.9	5.6	7.9	4.2	7.4	7.1	6.1	3.5	6.6
CCOc1ccccc1-n1c(C(C)N2CCN(C(=O)COc3ccc(Cl)cc3)CC2)nc2ccccc2c1=O (configuration not stated) [Erastin]	12.9	4.7	4.8	8.5	< 0	< 0	0.85	3.3	14.6	16.2	< 0	17
C=C1C[C@@H]2CC[C@@]34C[C@H]5O[C@H]6[C@@H](O3)[C@H]3O[C@H](CC[C@@H]3O[C@H]6[C@H]5O4)CC(=O)C[C@@H]3[C@@H](OC)[C@@H](C[C@H](O)CN)O[C@H]3C[C@H]3O[C@@H](CC[C@@H]1O2)C[C@@H](C)C3=C [Eribulin]	18.6	15.3	18.6	5.7	25.5	21.1	15.9	12.2	19	11.7	12.3	20.7
C#Cc1cccc(Nc2ncnc3cc(OCCOC)c(OCCOC)cc23)c1 [Erlotinib]	15.1	2.4	1.5	3	17.2	12	3.3	10	1.2	3.5	12.1	11.3
COc1cc([C@@H]2c3cc4c(cc3[C@@H](O[C@@H]3O[C@@H]5CO[C@@H](C)O[C@H]5[C@H](O)[C@H]3O)[C@H]3COC(=O)[C@H]23)OCO4)cc(OC)c1O [Etoposide]	2.7	< 0	0.5	2	1.9	1.8	2.55	1	4.7	2.1	2.9	4.8
CO[C@H]1C[C@@H]2CC[C@@H](C)[C@@](O)(O2)C(=O)C(=O)N2CCCC[C@H]2C(=O)O[C@H]([C@H](C)C[C@@H]2CC[C@@H](OCCO)[C@H](OC)C2)CC(=O)[C@H](C)/C=C(\C)[C@@H](O)[C@@H](OC)C(=O)[C@H](C)C[C@H](C)/C=C/C=C/C=C/1C [Everolimus]	0.9	6.2	4.1	2.2	8.3	5.3	< 0	0.4	< 0	3	< 0	2.7
CCn1c(=O)c(-c2ccc(Cl)cc2Cl)cc2cnc(Nc3ccc(N4CCNCC4)c(F)c3)nc21 [FRAX486]	10.8	4.8	3.7	7.6	14.7	9.3	4.5	6.5	4.5	8	9.7	6.5
Cc1cnc(Nc2ccc(OCCN3CCCC3)cc2)nc1Nc1cccc(S(=O)(=O)NC(C)(C)C)c1 [Fedratinib]	7.2	8.8	8.8	8.7	10.7	7	3.65	2.9	8.5	9.1	3	4.3

Compound	drug sensitivity score (OVSAHO; [1])	drug sensitivity score (OVSAHO; [2])	drug sensitivity score (Kuramochi; [1])	drug sensitivity score (Kuramochi; [2])	drug sensitivity score (FIMM-PDC5)	drug sensitivity score (FIMM-PDC4)	drug sensitivity score (FIMM-PDC1)	drug sensitivity score (FIMM-PDC7)	drug sensitivity score (JHOS2; [1])	drug sensitivity score (JHOS2; [2])	drug sensitivity score (FIMM-PDC6)	drug sensitivity score (FIMM-PDC3)
CON(C)C(=O)N1N=C(c2cc(F)ccc2F)S[C@@]1(CCCN)c1ccccc1 [Filanesib]	7.8	6.8	10.3	1.1	17.4	12.3	6.65	2.9	9.2	3	6.6	10.7
CCCCCCCCc1ccc(CCC(N)(CO)CO)cc1 [Fingolimod]	6.4	6.1	7.4	5	8.3	7.2	5.8	7	7.1	5.3	5.7	5.8
O=c1[nH]c(=O)n([C@H]2C[C@H](O)[C@@H](CO)O2)cc1F [Floxuridine]	4	6.6	8.25	14.1	3.5	0.1	6.7	3.5	< 0	0.6	2.3	3.7
O=C(NOCCO)c1ccc2cncn2c1Nc1ccc(I)cc1F [GDC-0623]	0.4	1.5	1.4	1.5	6.9	7.4	< 0	9	< 0	10	< 0	1.8
CCOC(=O)CCNc1cc(N2CCc3ccccc3CC2)nc(-c2ccccn2)n1 [GSK-J4]	< 0	11.7	5.3	7.4	< 0	< 0	0.2	0.3	0.7	2.2	< 0	< 0
Cc1cc(Nc2cc(CN3CCOCC3)c3nc(C)c(Cc4ccc(Cl)cc4F)n3n2)n[nH]1 [Gandotinib]	6.6	5.1	5.2	5.6	8.6	7.4	5.25	7.2	7	2.7	4.6	7.1
CC(C)c1cc(-c2n[nH]c(=O)n2-c2ccc3c(ccn3C)c2)c(O)cc1O [Ganetespib]	< 0	10.8	11.1	1.9	14.3	19.5	13.4	14	13.7	12.5	13.6	12.9
CN(C)C1CCN(C(=O)c2ccc(NC(=O)Nc3ccc(-c4nc(N5CCOCC5)nc(N5CCOCC5)n4)cc3)cc2)CC1 [Gedatolisib]	12.7	13.2	11.3	10.8	16.9	15.7	10.5	10.7	6.9	11.7	16.9	9
COc1cc2ncnc(Nc3ccc(F)c(Cl)c3)c2cc1OCCCN1CCOCC1 [Gefitinib]	7.7	4.1	4.3	3.3	18.6	15.2	3.4	10.7	3.5	3.5	13	10.9
Nc1ccn([C@@H]2O[C@H](CO)[C@@H](O)C2(F)F)c(=O)n1 [Gemcitabine]	6.1	4	< 0	0.8	21.8	9.8	5.15	13.3	19.5	7.1	14.2	9.4
CCN(CC)Cc1ccc2cc(COC(=O)Nc3ccc(C(=O)NO)cc3)ccc2c1 [Givinostat]	7.6	6.9	8.55	4.8	7.2	0.9	5.5	2.1	6	5.7	5.8	6.4
COc1cc2c(cc1-c1c(C)noc1C)ncc1[nH]c(=O)n([C@H](C)c3ccccn3)c12 [I-BET151]	5.7	10.3	10.6	3.7	8.9	3.9	3.15	9.9	8.4	6.2	5.9	4.5
C=CC(=O)N1CCC[C@@H](n2nc(-c3ccc(Oc4ccccc4)cc3)c3c(N)ncnc32)C1 [Ibrutinib]	2.9	2.6	2.2	1.1	10.1	7.7	0.35	2.5	0.6	< 0	6.4	5.6
C#Cc1cccc(Nc2ncnc3cc4c(cc23)OCCOCCOCCO4)c1 [Icotinib]	0.8	0.5	0.6	1.6	12.7	10.5	0.8	5.3	< 0	1	6.1	8.6
CC(=O)[C@]1(O)Cc2c(O)c3c(c(O)c2[C@@H](O[C@H]2C[C@H](N)[C@H](O)[C@H](C)O2)C1)C(=O)c1ccccc1C3=O [Idarubicin]	6.8	4.8	5.75	6	8.7	8.2	5.1	8.8	7.2	6.9	5.7	8.1
